Experiment [1] has as its system SRIF receptor. The experiment is described as follows: SRIF receptor affinity: displacement of 125I-CGP-23996 from AtT-20 cells. It is filed as binding. Particulars: displacement of 125I-CGP-23996, AtT-20 cells. How it is done: The affinity of a variety of compounds for the SRIF receptor was determined by studying the displacement of ^125 I-CGP-23996 from AtT-20 cells using the method generally in accordance with Raynor and Reisine, Journal of Pharmacology and Experimental Therapeutics, 1989, 251;2, 510.

In experiment [2] the test system is somatostatin receptors of AtT-20 cells. Particulars: read-out: IC50 for binding somatostatin receptors of AtT-20 cells, cited from earlier work.
Experiment [3] deals with T1, human neurokinin-1 receptor (NK1R) (Homo sapiens, UniProt P25103).
T1 construct: the cDNA for the human NK1R was cloned into the expression vector pCDM9; expressed in transfected cells; host or cells: COS cells (transient, electroporation, vector pCDM9)
The experiment is described as follows: Substance P receptor binding: 125I-substance P displacement from human NK1R expressed in COS cells. Conditions: 125I-SP, COS cells expressing human NK1R; read-out: IC50 (concentration required to inhibit the binding of substance P to the human neurokinin-1 receptor by 50%). The procedure: The affinity of a variety of compounds for the substance P receptor was determined employing the following procedure.
A. Receptor Expression in COS
To express the cloned human neurokinin-1 receptor (NK1R) transiently in COS, the cDNA for the human NK1R was cloned into the expression vector pCDM9 which was derived from pCDM8 (Invitrogen) by inserting the ampicillin resistance gene (nucleotide 1973 to 2964 from Bluescript SK+) into the Sac II site. Transfection of 20 μg of the plasmid DNA into 10 million COS cells was achieved by electroporation in 800 μl of the transfection buffer ([…], 1.2 mM MgCl2, 2.4 mM K2 HPO4, 0.6 mM KH2 PO4, 10 nM glucose, 10 mM HEPES pH 7.4) at 260V and 950 μF using the IBI Genezapper (IBI, New Haven, Conn.). The cells were incubated in 10% fetal calf serum, 2 mM glutamine, 100 U/ml penicillin-streptomycin, and 90% DMEM media (Gibco, Grand Island, N.Y.) in 5% CO2 at 37° C. for three days before the binding assay.
B. Assay Protocol using COS
The binding assay of human NK1R expressed in COS cells is based on the use of ^125 I-substance P (^125 I-SP, from DuPont, Boston, Mass.) as a radioactively labeled ligand which competes with unlabeled substance P or any other ligand for binding to the human NK1R. Monolayer cell cultures of COS were dissociated by the non-enzymatic solution (Specialty Media, Lavallette, N.J.) and resuspended in appropriate volume of the bind buffer (50 mM Tris pH 7.5, 5 mM MnCl2, 150 mM NaCl, 0.04 mg/ml bacitracin, 0.004 mg/ml leupeptin, 0.2 mg/ml BSA, 0.01 mM phosphoramidon) such that 200 μl of the cell suspension would give rise to about 10,000 cpm of specific ^125 I-SP binding (approximately 50,000 to 200,000 cells). In the binding assay, 200 μl of cells were added to a tube containing 20 μl of 1.5 to 2.5 nM of ^125 I-SP and 20 μl of unlabeled substance P or any other test compound. The tubes were incubated at 4° C. or at room temperature for 1 hour with gentle shaking. The bound radioactivity was separated from unbound radioactivity by GF/C filter (Brandel, Gaithersburg, Md.) which was pre-wetted with 0.1 polyethylenimine. The filter was washed with 3 ml of wash buffer (50 Tris pH 7.5, 5 mM MnCl21 150 mM NaCl) three times and its radioactivity was determined by gamma counter.
A variety of compounds were tested according to the COS cell procedure. The concentration of compound required to inhibit the binding of substance P to the human neurokinin-1 receptor by 50% was measured.

In experiment [4] the test system is β-adrenergic receptor. Description: Radioligand displacement from AtT-20 and brain cells, β-adrenergic receptor. It is filed as binding. Conditions: 125I-CYP (0.1 nM). A general note: Displacement assays read how much labelled ligand stays bound in the presence of the test substance.
Experiment [5] deals with Opiate Receptor. The experiment is described as follows: Radioligand displacement from brain cells, opiate receptor. The experiment is classed as binding. Particulars: 3H-naloxone (0.5 nM).
Experiment [6] concerns Dopamine Receptor. The experiment is described as follows: Radioligand displacement from brain cells, dopamine receptor. The experiment is classed as binding. Particulars: 3H-spiperone (0.1 nM).
Experiment [7] has as its system Muscarinic cholingeric. It is filed as binding. Particulars: 3H-QNB (0.1 nM).
For experiment [8], the system named is β-adrenergicreceptor. Particulars: AtT-20 cells; cited from earlier work.

Read-outs that look alike come from different tables or passages of the source.

T1 sequence (P25103 whole entry): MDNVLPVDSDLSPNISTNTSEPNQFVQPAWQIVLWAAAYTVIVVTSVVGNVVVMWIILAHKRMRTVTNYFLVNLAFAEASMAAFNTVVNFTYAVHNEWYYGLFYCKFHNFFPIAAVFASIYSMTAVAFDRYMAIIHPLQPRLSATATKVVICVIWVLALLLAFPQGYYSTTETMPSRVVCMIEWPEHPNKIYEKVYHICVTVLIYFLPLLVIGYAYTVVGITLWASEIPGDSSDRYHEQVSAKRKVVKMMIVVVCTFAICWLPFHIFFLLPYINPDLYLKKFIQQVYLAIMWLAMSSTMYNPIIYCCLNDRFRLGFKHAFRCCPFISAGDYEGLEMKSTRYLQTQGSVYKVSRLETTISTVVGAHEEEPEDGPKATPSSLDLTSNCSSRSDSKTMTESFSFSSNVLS

Take `C[C@H](N)C(=O)NCC(=O)N[C@H]1CSSC[C@@H](C(=O)O)NC(=O)[C@H](CO)NC(=O)[C@H]([C@@H](C)O)NC(=O)[C@H](Cc2ccccc2)NC(=O)[C@H]([C@@H](C)O)NC(=O)[C@H](CCCCN)NC(=O)[C@H](Cc2c[nH]c3ccccc23)NC(=O)[C@H](Cc2ccccc2)NC(=O)[C@H](Cc2ccccc2)NC(=O)[C@H](CC(N)=O)NC(=O)[C@H](CCCCN)NC1=O` [SRIF, somatostatin, reference compound]: the IC50 was 9.3 nM in experiment [1] and about 9.3 nM in experiment [2] (also printed as 9.3×10^-9 M).
For `NCCCCCOC[C@H]1O[C@@H](OCCc2c[nH]c3ccccc23)[C@H](OCc2ccccc2)[C@@H](OCc2ccccc2)[C@@H]1OCc1ccccc1` [Compound 1, 2-(1H-Indol-3yl)ethyl-6-O-(5-aminopentyl)-2,3,4-tri-O-benzyl-β-D-glucopyranoside], the values for the IC50 in experiment [3], in experiment [1] and in experiment [2] were 120 nM, 9500 nM and about 9500 nM, respectively. Also, the “Binding Inhibition” value in experiment [4] (AtT-20) was about 70%; in experiment [4] (Brain) it was 45%; in experiment [5] it was 55%; in experiment [6] it was 82%; in experiment [7] (AtT-20), 20%; in experiment [7] (Brain) it was 83%. The “concentration required for β-adrenergic receptor binding relative to somatostatin receptor” value in experiment [8] was “five fold higher concentration”.
Consider “2-(1H-indol-3-yl)ethyl-6-O-(5-aminopentyl)-2,4-di-O-deoxy-β-D-glucopyranoside [Compound 2]”, for which the IC50 in experiment [3] was 180 nM; in experiment [1], 1300 nM; in experiment [2], about 1000 nM.

The record behind these values is patent US5811512A, “Non-peptide peptidomimetics and related cyclic hexapeptides” (The Trustees of the University of Pennsylvania, priority 1996, dated 1998).
